# Assay results: patent US10563272B2, “Compositions comprising Metarhizium fungi and use thereof as a pesticide” (Cotton Research and Development Corporation, priority 2015, dated 2020)
# How the values were obtained:
# [1] = system: predatory beetles; test: Foliar spray trial on Bollgard II cotton, Norwood 2010-11 (Example 7): predatory beetles; format: in vivo, Coleoptera (Coccinellidae, Melyridae); conditions: fipronil 62.5 mL/ha; for number of predatory beetles per meter: 1st spray, BC 667/DAT 511 0.50 L/ha; for number of predatory beetles per metre: 2nd spray, BC 667/DAT 511 0.5 L/ha
# Experimental: The trial was conducted on commercial Bollgard II® cotton crops at Norwood near Moree, NSW from 5 Dec. 2010 to 19 Feb. 2011. The cotton was at the early squaring stage, when it was attractive to green mirids (Khan et al. 2004).
# The study evaluated the efficacy of the following treatments against green mirids, green vegetable bugs and predatory insects: • 1. 500 mL/ha BC 667 spore in oil (1×10^7 spores/ml); • 2. 500 mL/ha DAT 511 spore in oil (1×10^7 spores/ml); • 3. 62.5 mL/ha Fipronil (conventional insecticide); and • 4. Unsprayed (control).
# The treatment plots were arranged in a randomized complete block design with four replicates per treatment. Each replicated plot measured 0.5 ha. Foliar application of each treatment was made on 18 Jan. 2011 using a ground spray rig fitted with flat fan nozzles to achieve a droplet size of 80 250 μm. The treatment was applied in the mornings when temperature was between 20° C. and 28° C. The timing of treatment was based on an economic threshold of 0.5 green mirids per metre, the IPM guideline and recommendation by CottonLogic.
# Pre-treatment counts of green mirid adults and nymphs, predatory beetles, predatory bugs, predatory lacewings and spiders were made by visual inspection of whole cotton plants. Both adults and nymphs of the beneficial insects were counted. Plants were assessed in randomly selected one-metre lengths of row of each treatment replicate (i.e. four metres per treatment). In all, two spray applications of each treatment were made. The first spray was made on 18 Jan. 2011. Post-treatment counts of the first spray application were taken 3, 7 and 14 days after treatment (DAT) (first spray). A second spray application was done on 1 Feb. 2011 when green mirid adults plus nymphs reached the threshold of 0.5 per metre. Post-treatment counts of the second spray application were taken 3, 7, 14, 21 and 28 DAT. Data are expressed as numbers of individuals of that species counted per metre for each treatment.
# [2] = system: green mirids; test: Rate trial on conventional cotton refuge crops, Undabri 2012 (Example 12): green mirids; format: in vivo, Creontiades dilutus; conditions: adults P<0.03, nymphs P<0.001
# Experimental: This trial was conducted using commercial conventional cotton refuge crops at Undabri in Goondiwindi (28° 55'S, 150° 31′E) from 14 Feb. to 6 Mar. 2012.
# The efficacy of the following treatments against green mirids, green vegetable bugs and predatory insects was assessed: • 1. 250 mL/ha DAT 511 spore in oil (1×10^7 spores/ml); • 2. 500 mL/ha DAT 511 spore in oil (1×10^7 spores/ml); • 3. 1 L/ha DAT 511 spore in oil (1×10^7 spores/ml); • 4. 62.5 mL/ha fipronil; and • 5. Unsprayed (negative control).
# The plots were arranged in a randomized complete block design with three replicates per treatment. Each replicated plot measured 8 m (8 rows) wide and 250 m long.
# Foliar applications of each treatment were made on 14 Feb. 2012 using a ground spray rig fitted with flat fan nozzles to achieve a droplet size of 200 μm. All insecticide formulations were water miscible. All treatments were applied using a spray volume of 100 L/ha. The untreated (negative control) plot was left unsprayed and the plot treated with synthetic insecticide received two applications similar to, and on the same date as, the plots treated with the fungus.
# For each replicate, visual counts of adults and nymphs of green mirids, green vegetable bugs (GVB), apple dimpling bugs and predatory insects on whole cotton plants were made in a randomly selected 1 m length of row of cotton plants (i.e. 6 m per treatment). […]
# [3] = system: predatory bugs; test: Bollgard II cotton, Auscott-Togo 2012-13, Field 77 (Experiment 1): predatory bugs; format: in vivo, Hemiptera (Nabidae, Lygaeidae, Pentatomidae); conditions: 62.5 mL/ha
# Experimental: Two separate trials (Experiment 1 in Field 77; Experiment 2 in Field 63) were conducted in Bollgard II cotton crops on a commercial cotton farm at Auscott-Togo near Narrabri, New South Wales from 11 Feb. to 5 Mar. 2013 (Field 77) and 19 Feb. to 6 Mar. 2013 (Field 63). The cotton used for each of the trials was at the late squaring to pod setting and maturation stages which was fairly attractive to green mirids.
# In both trials, the efficacy of the following treatments against green mirids and predatory insects was evaluated: • 1. 250 mL/ha DAT 511 spore in oil (1×10^7 spores/ml); • 2. 500 mL/ha DAT 511 spore in oil (1×10^7 spores/ml); • 3. 1 L/ha DAT 511 spore in oil (1×10^7 spores/ml); • 4. 62.5 mL/ha of fipronil; and • 5. Unsprayed (negative control).
# The treatment plots were arranged in a randomized complete block design with six replicates per treatment. Each replicated plot measured 40 m wide (40 rows) and 90 m long.
# Foliar application of each treatment was made on 28 Feb. (for both green mirids and beneficial insects) and 13 Mar. 2012 (for beneficial insects alone) using a ground spray rig fitted with flat fan nozzles to achieve a droplet size of 200 μm. The treatment was applied during the mornings when temperatures were between 20° C. and 28° C. The timing of treatment was based on the IPM Guidelines and recommendations by CottonLogic to use an economic threshold of 0.5 green mirids per metre (Deutscher and Wilson 1999; Khan et al. 2004).
# Pre-treatment counts of green mirid adults and nymphs, predatory beetles, predatory bugs, predatory lacewings and spiders were made by visual inspection of whole cotton plants. Both adults and nymphs of beneficial insects were counted. Plants were assessed in randomly selected one-metre lengths of row of each replicate (i.e. 6 m per treatment). Post-treatment counts were made 3, 7, 14 and 21 days after treatment. Data are expressed as numbers of green mirid adults and nymphs counted per metre for each treatment.
smiles,measurement,setting,value
N#Cc1nn(-c2c(Cl)cc(C(F)(F)F)cc2Cl)c(N)c1[S+]([O-])C(F)(F)F (stereo not shown) [fipronil],number of predatory beetles per meter,[1]; 3 DAT,0.00 ± 0.00 a per meter
same,number of predatory beetles per meter,[1]; 7 DAT,0.00 ± 0.00 a per meter
same,number of predatory beetles per meter,[1]; 14 DAT,0.00 ± 0.00 a per meter
same,number of predatory beetles per meter,[1]; pre-spray counts 18 Jan. 2011,0.67 ± 0.33 a per meter
same,number of predatory beetles per metre,[1]; 3 DAT,0.33 ± 0.33a per metre
same,number of predatory beetles per metre,[1]; 7 DAT,0.33 ± 0.33a per metre
same,number of predatory beetles per metre,[1]; 14 DAT,0.00 ± 0.00a per metre
same,number of predatory beetles per metre,[1]; 21 DAT,1.00 ± 0.58a per metre
same,number of predatory beetles per metre,[1]; 28 DAT,0.67 ± 0.33a per metre
same,number of predatory beetles per metre,[1]; pre-spray counts 1 Feb. 2011,0.00 ± 0.00a per metre
same,green mirid adults and nymphs per metre versus unsprayed plots,[2],Significantly fewer
same,number of predatory bugs per meter,[3]; 3 DAT,0.33 ± 0.00 a per meter
same,number of predatory bugs per meter,[3]; 7 DAT,0.00 ± 0.00 a per meter
same,number of predatory bugs per meter,[3]; 14 DAT,0.00 ± 0.00 a per meter
same,number of predatory bugs per meter,[3]; 21 DAT,0.67 ± 0.33 a per meter
same,number of predatory bugs per meter,[3]; pre-spray counts,0.33 ± 0.33 a per meter
